{
  "source": "patent US9938335B2",
  "about": "“Glucagon and GLP-1 co-agonist compounds” (Eli Lilly and Company, priority 2015, dated 2018)",
  "type_in_all_cases": "in vivo, mouse",
  "key": {"DIO mice (C57BL/6) [1]": {"test_system": "DIO mice (C57BL/6)", "assay": "Chronic treatment in DIO mice (body weight, fat, food intake)", "description": "The effects on food intake and body weight/fat are evaluated in DIO mice. Five to six months old DIO mice (C57BL/6) from Taconic Biosciences are used in this study. Animals are individually housed in a temperature-controlled (24° C.) facility with a 12 hour light/dark cycle (lights on 6:00), and free access to food and water. The mice are acclimated to the facility for two weeks. The day before the study start, fat mass is measured by nuclear magnetic resonance (NMR) using an Echo Medical System (Houston, Tex.) instrument. The mice are randomized to treatment groups (N=7/group) based on body weight and fat mass so each group had similar starting mean body weight and fat mass. […] SC injections are made on Day 1, 4, 7, 10, and 13. Body weight and food intake are measured right before each injection throughout the study. Percent changes in body weight are calculated as follows: […]\nAt the completion of the study, total fat mass is measured again by NMR. Statistics are analyzed using ANOVA with Dunnett's comparison by JMP 6. Significance is denoted at p≤0.05 vs. vehicle."}, "DIO mice (C57BL/6) [2]": {"test_system": "DIO mice (C57BL/6)", "assay": "Acute treatment in DIO mice (PCSK9, FGF-21, cholesterol)", "description": "In order to investigate metabolic pathways involved with the treatment of compounds of the present invention independent of weight loss, compounds are tested in DIO mice (C57BL/6) acutely. The mice used are three to four months old on a high fat diet for at least 4 weeks. Animals are individually housed in a temperature-controlled (24° C.) facility with a 12 hour light/dark cycle (lights on 6:00), and free access to food and water. Vehicle or testing compounds were administered to mice by subcutaneous injection at 16:00 the day before the study day. Animals were sacrificed 16 hours later to collect blood via cardia puncture. Statistics are analyzed using ANOVA with Dunnett's comparison for JMP-6. Significance is denoted at p≤0.05 vs vehicle.\nFood intake was decreased to a similar level in all treatment groups, which may indicate that changes in cholesterol, PCSK9 and FGF-21 are food-intake independent."}, "[3]": {"test_system": "STZ-treated DIO mice (C57BL/6)", "assay": "OGTT in Streptozotocin (STZ)-treated DIO mice", "settings": "male STZ mice, OGTT (2 g/kg) 16 hours post injection", "description": "STZ-treated mouse model is a model of early diabetes. Five to six months old male DIO mice (C57BL/6) from Taconic Biosciences are used in this study. Animals are individually housed in a temperature-controlled (24° C.) facility with a 12 hour light/dark cycle (lights on 6:00), and free access to food and water. After two weeks acclimation to the facility, mice are injected intraperitoneally with 50 mg/kg of STZ on Tuesday and Friday. Two weeks post the injection, animals with glucose levels between 180-300 mg/dL at 09:00 are selected for the OGTT study. The day before the study, animals are randomized into groups based on body weight and their glucose levels. Animals are treated with vehicle or testing articles by subcutaneous injection just prior to food removal overnight (16:00). The following morning at 08:00, 16 hours post compound injection, blood samples are taken to measure time zero glucose. Animals are given an oral dose of glucose of 2 g/kg. Glucose is measured 15, 30, 60, and 120 minutes post the oral glucose challenge. Statistics are analyzed using ANOVA with Dunnett's comparison by JMP 6. Significance is denoted at p≤0.05 vs. vehicle."}, "DIO mice (C57BL/6) [4]": {"test_system": "DIO mice (C57BL/6)", "assay": "Effects on energy expenditure in DIO mice (indirect calorimetry)", "settings": "for Cumulative Heat (Kcal/kg lean mass/3 day): test article 15 nmol/kg, semaglutide 60 nmol/kg sc every three days", "description": "Seven to eight months old male DIO mice (C57BL/6) weighing 45-50 g are used in this study to assess the effect of compounds of the present invention on energy metabolism. Animals are individually housed in a temperature-controlled (24° C.) facility with a 12 hour light/dark cycle (lights on 22:00), and free access to food (TD95217)(Teklad) and water. After 2 weeks acclimation to the facility, mice are randomized to treatment groups (N=6/group) based on body weight so each group has similar starting mean body weight. Animals are placed in a PhenoMaster/LabMaster calorimeter (TSE Systems, Chesterfield, Mo.) for 8 days of acclimation.\nHeat and […] (RER) are measured by indirect calorimetry as described using an open-circuit calorimetry system. RER is the ratio of the volume of CO2 produced (VCO2) to the volume of O2 consumed (VO2). Heat is calculated with lean body weight considered. The energy expenditure is kcal/kg/3 day and expressed as mean±SEM of 6 mice per group. Statistical significance is assessed by two-way ANOVA followed by Tukey's multiple comparison test."}, "DIO mice (C57BL/6) [5]": {"test_system": "DIO mice (C57BL/6)", "assay": "Oral Glucose Tolerance Test (OGTT) in DIO mice", "settings": "male DIO mice, OGTT (2 g/kg) 16 hours post injection", "description": "Diet-induced obese (DIO) mouse model is a model of insulin resistance. Five to six months old male DIO mice (C57BL/6) from Taconic Biosciences are used in this study. Animals are individually housed in a temperature-controlled (24° C.) facility with a 12 hour light/dark cycle (lights on 06:00), and free access to food and water. The acclimation period to the facility is two weeks. The day before the study, animals are randomized into groups based on their body weight. That same afternoon, animals are fasted in clean cages and dosed with vehicle (40 mM Tris-HCl, pH 8.0) or test articles by subcutaneous injection. The following morning, 16 hours post the peptide injection, fasting body weights are obtained to calculate glucose doses. Blood samples are taken to measure time zero glucose. Animals are then given an oral gavage of glucose (2 g/kg). Two glucose readings via glucometers were obtained at 15, 30, 60 and 120 minutes post oral glucose. The average of two glucose readings is reported at each time point and an area under the curve is calculated. Statistics were analyzed using ANOVA with Dunnett's comparison by JMP 6; significance is denoted at p≤0.05 vs. vehicle."}, "[6]": {"settings": "30 nmol/kg sc every three days for 15 days"}, "[7]": {"settings": "60 nmol/kg sc every three days for 15 days"}, "[8]": {"settings": "30 nmol/kg sc, 16 hours post dose"}},
  "note": "Marks after values point to notes of the source that are not given here.",
  "data": [
    {"substance": "semaglutide [reference compound]", "values": [
      {"measurement": "Body Fat (% change vs. vehicle from Day 1)", "setting": "DIO mice (C57BL/6) [1]; [6]", "result": "−20* %"},
      {"measurement": "Body Weight (% change vs. vehicle from Day 1)", "setting": "DIO mice (C57BL/6) [1]; [6]", "result": "−8", "unit": "%"},
      {"measurement": "Body Fat (% change vs. vehicle from Day 1)", "setting": "DIO mice (C57BL/6) [1]; [7]", "result": "−29* %"},
      {"measurement": "Body Weight (% change vs. vehicle from Day 1)", "setting": "DIO mice (C57BL/6) [1]; [7]", "result": "−12* %"},
      {"measurement": "Cholesterol (% of vehicle)", "setting": "DIO mice (C57BL/6) [2]; [8]", "result": "117.6 % of vehicle"},
      {"measurement": "FGF-21 (% of vehicle)", "setting": "DIO mice (C57BL/6) [2]; [8]", "result": "75 % of vehicle"},
      {"measurement": "PCSK9 (% of vehicle)", "setting": "DIO mice (C57BL/6) [2]; [8]", "result": "115.3 % of vehicle"},
      {"measurement": "serum cholesterol, PCSK9 and FGF-21 levels", "setting": "DIO mice (C57BL/6) [2]; acute treatment", "result": "does not decrease serum cholesterol and PCSK9 levels and increase FGF-21 levels"},
      {"measurement": "Glucose AUC (% of vehicle)", "setting": "[3]; 1 nmol/kg sc", "result": "72* % of vehicle"},
      {"measurement": "Glucose AUC (% of vehicle)", "setting": "[3]; 3 nmol/kg sc", "result": "53* % of vehicle"},
      {"measurement": "Glucose AUC (% of vehicle)", "setting": "[3]; 10 nmol/kg sc", "result": "35* % of vehicle"},
      {"measurement": "metabolic rate", "setting": "DIO mice (C57BL/6) [4]; DIO mice, chronic treatment", "result": "no effect on metabolic rate"},
      {"measurement": "Cumulative Heat (Kcal/kg lean mass/3 day)", "setting": "DIO mice (C57BL/6) [4]; Day 1 to Day 4", "result": "1973 ± 51", "unit": "Kcal/kg lean mass/3 day"},
      {"measurement": "Cumulative Heat (Kcal/kg lean mass/3 day)", "setting": "DIO mice (C57BL/6) [4]; Day 4 to Day 7", "result": "2018 ± 54", "unit": "Kcal/kg lean mass/3 day"},
      {"measurement": "Cumulative Heat (Kcal/kg lean mass/3 day)", "setting": "DIO mice (C57BL/6) [4]; Day 7 to Day 10", "result": "2151 ± 48", "unit": "Kcal/kg lean mass/3 day"},
      {"measurement": "Cumulative Heat (Kcal/kg lean mass/3 day)", "setting": "DIO mice (C57BL/6) [4]; Day 10 to Day 13", "result": "2138 ± 46", "unit": "Kcal/kg lean mass/3 day"},
      {"measurement": "Glucose AUC (% of vehicle)", "setting": "DIO mice (C57BL/6) [5]; 1 nmol/kg sc", "result": "59* % of vehicle"},
      {"measurement": "Glucose AUC (% of vehicle)", "setting": "DIO mice (C57BL/6) [5]; 3 nmol/kg sc", "result": "51* % of vehicle"},
      {"measurement": "Glucose AUC (% of vehicle)", "setting": "DIO mice (C57BL/6) [5]; 10 nmol/kg sc", "result": "38* % of vehicle"}
    ]}
  ]
}
